# Source: ChEMBL document CHEMBL4715697, “Synthesis and biological activity of benzamide DNA minor groove binders” (2016)
# Key:
# Type in all cases: functional
# SK-MEL-5 = experiment: Growth inhibition of human SK-MEL-5 cells assessed as cell growth at 0.01 uM incubated for 48 hrs by sulforhodamine B assay relative to control; settings: read-out: Activity
# OVCAR-5 = experiment: Growth inhibition of human OVCAR-5 cells assessed as cell growth at 0.01 uM incubated for 48 hrs by sulforhodamine B assay relative to control; settings: read-out: Activity
# 786-0 = experiment: Growth inhibition of human 786-0 cells assessed as cell growth at 0.01 uM incubated for 48 hrs by sulforhodamine B assay relative to control; settings: read-out: Activity
# RXF 393 [1] = experiment: Growth inhibition of human RXF 393 cells assessed as cell growth at 0.01 uM incubated for 48 hrs by sulforhodamine B assay relative to control; settings: read-out: Activity
# UO-31 = experiment: Growth inhibition of human UO-31 cells assessed as cell growth at 0.01 uM incubated for 48 hrs by sulforhodamine B assay relative to control; settings: read-out: Activity
# K562 = experiment: Growth inhibition of human K562 cells assessed as cell growth at 0.1 uM incubated for 48 hrs by sulforhodamine B assay relative to control; settings: read-out: Activity
# RPMI-8226 = experiment: Growth inhibition of human RPMI-8226 cells assessed as cell growth at 0.1 uM incubated for 48 hrs by sulforhodamine B assay relative to control; settings: read-out: Activity
# SR [2] = experiment: Growth inhibition of human SR cells assessed as cell growth at 0.1 uM incubated for 48 hrs by sulforhodamine B assay relative to control; settings: read-out: Activity
# NCI-H23 [3] = experiment: Growth inhibition of human NCI-H23 cells assessed as cell growth at 0.1 uM incubated for 48 hrs by sulforhodamine B assay relative to control; settings: read-out: Activity
# HCT-15 [4] = experiment: Growth inhibition of human HCT-15 cells assessed as cell growth at 0.1 uM incubated for 48 hrs by sulforhodamine B assay relative to control; settings: read-out: Activity
# HT-29 = experiment: Growth inhibition of human HT-29 cells assessed as cell growth at 0.1 uM incubated for 48 hrs by sulforhodamine B assay relative to control; settings: read-out: Activity
# M14 = experiment: Growth inhibition of human M14 cells assessed as cell growth at 0.1 uM incubated for 48 hrs by sulforhodamine B assay relative to control; settings: read-out: Activity
# RXF 393 [5] = experiment: Growth inhibition of human RXF 393 cells assessed as cell growth at 0.1 uM incubated for 48 hrs by sulforhodamine B assay relative to control; settings: read-out: Activity
# SR [6] = experiment: Growth inhibition of human SR cells assessed as cell growth at 1 uM incubated for 48 hrs by sulforhodamine B assay relative to control; settings: read-out: Activity
# NCI-H23 [7] = experiment: Growth inhibition of human NCI-H23 cells assessed as cell growth at 1 uM incubated for 48 hrs by sulforhodamine B assay relative to control; settings: read-out: Activity
# NCI-H460 = experiment: Growth inhibition of human NCI-H460 cells assessed as cell growth at 1 uM incubated for 48 hrs by sulforhodamine B assay relative to control; settings: read-out: Activity
# HCT-15 [8] = experiment: Growth inhibition of human HCT-15 cells assessed as cell growth at 1 uM incubated for 48 hrs by sulforhodamine B assay relative to control; settings: read-out: Activity
# SF-539 = experiment: Growth inhibition of human SF-539 cells assessed as cell growth at 1 uM incubated for 48 hrs by sulforhodamine B assay relative to control; settings: read-out: Activity
# ACHN = experiment: Growth inhibition of human ACHN cells assessed as cell growth at 1 uM incubated for 48 hrs by sulforhodamine B assay relative to control; settings: read-out: Activity
# MOLT-4 = experiment: Growth inhibition of human MOLT-4 cells assessed as cell growth at 100 uM incubated for 48 hrs by sulforhodamine B assay relative to control; settings: read-out: Activity
# EKVX = experiment: Growth inhibition of human EKVX cells assessed as cell growth at 100 uM incubated for 48 hrs by sulforhodamine B assay relative to control; settings: read-out: Activity
# SW-620 = experiment: Growth inhibition of human SW-620 cells assessed as cell growth at 100 uM incubated for 48 hrs by sulforhodamine B assay relative to control; settings: read-out: Activity
# U-251 = experiment: Growth inhibition of human U-251 cells assessed as cell growth at 100 uM incubated for 48 hrs by sulforhodamine B assay relative to control; settings: read-out: Activity
# SK-MEL-28 = experiment: Growth inhibition of human SK-MEL-28 cells assessed as cell growth at 100 uM incubated for 48 hrs by sulforhodamine B assay relative to control; settings: read-out: Activity
# UACC-62 = experiment: Growth inhibition of human UACC-62 cells assessed as cell growth at 100 uM incubated for 48 hrs by sulforhodamine B assay relative to control; settings: read-out: Activity
# OVCAR-8 = experiment: Growth inhibition of human OVCAR-8 cells assessed as cell growth at 100 uM incubated for 48 hrs by sulforhodamine B assay relative to control; settings: read-out: Activity
# SK-OV-3 = experiment: Growth inhibition of human SK-OV-3 cells assessed as cell growth at 100 uM incubated for 48 hrs by sulforhodamine B assay relative to control; settings: read-out: Activity
# SN12C = experiment: Growth inhibition of human SN12C cells assessed as cell growth at 100 uM incubated for 48 hrs by sulforhodamine B assay relative to control; settings: read-out: Activity
# CCRF-CEM = experiment: Growth inhibition of human CCRF-CEM cells incubated for 48 hrs by sulforhodamine B assay
# HL-60(TB) = experiment: Growth inhibition of human HL-60(TB) cells incubated for 48 hrs by sulforhodamine B assay
# HOP-62 = experiment: Growth inhibition of human HOP-62 cells incubated for 48 hrs by sulforhodamine B assay
# NCI-H226 = experiment: Growth inhibition of human NCI-H226 cells incubated for 48 hrs by sulforhodamine B assay
# NCI-H322M = experiment: Growth inhibition of human NCI-H322M cells incubated for 48 hrs by sulforhodamine B assay
# CAKI-1 = experiment: Growth inhibition of human CAKI-1 cells incubated for 48 hrs by sulforhodamine B assay
# MCF7 = experiment: Growth inhibition of human MCF7 cells incubated for 48 hrs by sulforhodamine B assay
# [9] = read-out: LC50 (the source's name)
# [10] = read-out: pLC50 (the source's name) (converted)
compound,measurement,setting,value
CC(=O)Nc1cc(CO[Si](C)(C)C(C)(C)C)cc(NC(=O)c2ccc(C(=O)Nc3cccc(NC(=O)CCCN(C)C)c3)cc2)c1,growth at 0.01 µM,SK-MEL-5,98%
same,growth at 0.01 µM,OVCAR-5,93%
same,growth at 0.01 µM,786-0,97%
same,growth at 0.01 µM,RXF 393 [1],101%
same,growth at 0.01 µM,UO-31,83%
same,growth at 0.1 µM,K562,96%
same,growth at 0.1 µM,RPMI-8226,101%
same,growth at 0.1 µM,SR [2],103%
same,growth at 0.1 µM,NCI-H23 [3],98%
same,growth at 0.1 µM,HCT-15 [4],91%
same,growth at 0.1 µM,HT-29,103%
same,growth at 0.1 µM,M14,95%
same,growth at 0.1 µM,RXF 393 [5],102%
same,growth at 1 µM,SR [6],94%
same,growth at 1 µM,NCI-H23 [7],96%
same,growth at 1 µM,NCI-H460,99%
same,growth at 1 µM,HCT-15 [8],87%
same,growth at 1 µM,SF-539,100%
same,growth at 1 µM,ACHN,98%
same,growth at 100 µM,MOLT-4,98%
same,growth at 100 µM,EKVX,82%
same,growth at 100 µM,SW-620,100%
same,growth at 100 µM,U-251,89%
same,growth at 100 µM,SK-MEL-28,74%
same,growth at 100 µM,UACC-62,72%
same,growth at 100 µM,OVCAR-8,88%
same,growth at 100 µM,SK-OV-3,93%
same,growth at 100 µM,SN12C,91%
same,GI50,CCRF-CEM; read-out: GI50,> 75 µM
same,CC50,CCRF-CEM; [9],> 75 µM
same,TGI,CCRF-CEM; read-out: TGI,> 75 µM
same,GI50,CCRF-CEM; read-out: pGI50 (converted),> 75.9 µM
same,CC50,CCRF-CEM; [10],> 75.9 µM
same,TGI,CCRF-CEM; read-out: pTGI (converted),> 75.9 µM
same,GI50,HL-60(TB); read-out: GI50,> 75 µM
same,LC50,HL-60(TB); read-out: LC50,> 75 µM
same,TGI,HL-60(TB); read-out: TGI,> 75 µM
same,GI50,HL-60(TB); read-out: pGI50 (converted),> 75.9 µM
same,LC50,HL-60(TB); read-out: pLC50 (converted),> 75.9 µM
same,TGI,HL-60(TB); read-out: pTGI,> 75.9 µM
same,GI50,HOP-62; read-out: GI50,> 75 µM
same,CC50,HOP-62; [9],> 75 µM
same,TGI,HOP-62; read-out: TGI,> 75 µM
same,GI50,HOP-62; read-out: pGI50 (converted),> 75.9 µM
same,CC50,HOP-62; [10],> 75.9 µM
same,TGI,HOP-62; read-out: pTGI,> 75.9 µM
same,GI50,NCI-H226; read-out: GI50,> 75 µM
same,CC50,NCI-H226; [9],> 75 µM
same,TGI,NCI-H226; read-out: TGI,> 75 µM
same,GI50,NCI-H226; read-out: pGI50 (converted),> 75.9 µM
same,CC50,NCI-H226; [10],> 75.9 µM
same,TGI,NCI-H226; read-out: pTGI,> 75.9 µM
same,GI50,NCI-H322M; read-out: GI50,> 75 µM
same,CC50,NCI-H322M; [9],> 75 µM
same,TGI,NCI-H322M; read-out: TGI,> 75 µM
same,GI50,NCI-H322M; read-out: pGI50 (converted),> 75.9 µM
same,CC50,NCI-H322M; [10],> 75.9 µM
same,TGI,NCI-H322M; read-out: pTGI,> 75.9 µM
same,GI50,CAKI-1; read-out: GI50,> 75 µM
same,CC50,CAKI-1; [9],> 75 µM
same,TGI,CAKI-1; read-out: TGI,> 75 µM
same,GI50,CAKI-1; read-out: pGI50 (converted),> 75.9 µM
same,CC50,CAKI-1; [10],> 75.9 µM
same,TGI,CAKI-1; read-out: pTGI,> 75.9 µM
same,GI50,MCF7; read-out: GI50,29.7 µM
same,CC50,MCF7; [9],> 75 µM
same,TGI,MCF7; read-out: TGI,> 75 µM
same,GI50,MCF7; read-out: pGI50 (converted),29.5 µM
same,CC50,MCF7; [10],> 75.9 µM
same,TGI,MCF7; read-out: pTGI,> 75.9 µM
